These results are taken from patent publication US20260250318A1, “COMPOSITIONS AND METHODS FOR CROSSING THE BLOOD BRAIN BARRIER” (VOYAGER THERAPEUTICS, INC., priority 2022, published 2026).

For the experiment, the system named is brain. The experiment can be described thus: Maturation of TTM-001 capsid, NGS enrichment in brain of CD-1 Outbred mice. The format is in vivo. Particulars: NGS fold-enrichment of TTM-001 matured AAV capsid variants in the brain of CD-1 Outbred mice; intravenous 1.0×10^12 VG/dose; 14 days in life; RNA; relative to non-matured TTM-001 control. The source says:
This Example describes maturation of the TTM-001 (SEQ ID NO: 981 (amino acid) and 983 (DNA), comprising SEQ ID NO: 941) and TTM-002 (SEQ ID NO: 982 (amino acid) and 984 (DNA), comprising SEQ ID NO: 2) capsid variants to further enhance their transduction and biodistribution in the central nervous system and evolve the AAV capsid variants to provide further cross-species compatibility. Two approaches were used to mature the TTM-001 and TTM-002 capsid sequences in order to randomize and mutate within and around the peptide insert comprised within loop IV of the capsid variant. […] In the first maturation approach, sets of three contiguous amino acids were randomized across the mutagenesis region in the TTM-001 and TTM-002 sequences, which spanned from position 450 to position 466, numbered according to SEQ ID NO: 981 and 982. In the second maturation approach, mutagenic primers were used to introduce point mutations at a low frequency, scattered across the mutagenesis region in the TTM-001 and TTM-002 sequences ranging from position 449 to position 466, numbered according to SEQ ID NO: 981 and 982. AAV capsid variants arising from each maturation approach for TTM-001 were pooled together and AAV capsid variants arising from each maturation approach for TTM-002 were also pooled together, for subsequent testing and characterization in mice.
The library of pooled matured AAV capsid variants generated from TTM-001 or library of pooled matured AAV capsid variants generated from the TTM-002 matured AAV capsid variant each were intravenously injected into the tail vein of three female CD-1 Outbred mice (Charles River) at a dose of 1.0×10^12 VG/dose. After 14-days in life, the brains of the mice were isolated and RNA was extracted. Following RNA recovery and RT-PCR amplification, a systematic NGS enrichment analysis was performed to calculate the fold enrichment ratio relative to the corresponding TTM-001 or TTM-002 control, and the peptides comprised within the variants were identified. The data for the TTM-001 matured capsid variants is provided in Table 13 and the data for the TTM-002 matured capsid variants is provided in Table 14.

Regarding KTINGSGSPHSLWSNQQT, the “Fold enrichment over TTM-001” value was found to be 4.467 fold.

Regarding KTINGSGSPHSKARKLQT, the “Fold enrichment over TTM-001” value is on record as 2.458 fold.

As for KTINGSGSPHSWSLNQQT, the “Fold enrichment over TTM-001” value was determined as 2.523 fold.

In the case of KTINGSGSPHSKAQQSRT, the “Fold enrichment over TTM-001” value is 2.337 fold.

Consider KTINGSGSPHSKMRAQQT, for which the “Fold enrichment over TTM-001” value is on record as 3.382 fold.

Regarding “KTINGSVSPHRRAQNQQT (peptide inserted in AAV capsid)”, the “Fold enrichment over TTM-001” value was found to be 2.186 fold.

For KTINGSGSPHSKARLRQT, the “Fold enrichment over TTM-001” value came to 4.155 fold.

KTINGSGSPHSKAPNHLT: the “Fold enrichment over TTM-001” value is 2.324 fold.

For “KTINGSRSPHTRAQNQQT (peptide inserted in AAV capsid)”, the “Fold enrichment over TTM-001” value came out at 3.989 fold.

In the case of KTINGSGSPHSKRGLQQT, the “Fold enrichment over TTM-001” value is on record as 2.402 fold.

On to KTINGSGSPHSKAQNAKL, for which the “Fold enrichment over TTM-001” value worked out at 2.486 fold.

For KTINGSGSPHLCLQNQQT, the “Fold enrichment over TTM-001” value was 3.425 fold.

In the case of KTINGSGSPHSKRINQQT, the “Fold enrichment over TTM-001” value is recorded as 2.173 fold.

Take KTINGSGSPHSKRPFQQT: the “Fold enrichment over TTM-001” value was 2.076 fold.

For the sequence KTINGSGSPHSKAQLAKT, the “Fold enrichment over TTM-001” value amounted to 2.238 fold.

With KTINGSGSPHSKGGRQQT, the “Fold enrichment over TTM-001” value is given as 2.164 fold.

For KTINGSGSPHSRTYNQQT, the “Fold enrichment over TTM-001” value was determined as 2.009 fold.

Turning to “KYSVGSGSPHSKAQNQQT (peptide inserted in AAV capsid)”, the “Fold enrichment over TTM-001” value turned out to be 3.365 fold.

In the case of KTINGSGSPHSKARANQT, the “Fold enrichment over TTM-001” value is recorded as 2.300 fold.

In the case of KTINGSGSPHSYLINQQT, the “Fold enrichment over TTM-001” value was determined as 2.650 fold.

In the case of KTINGSGSPHSKAQVWFT, the “Fold enrichment over TTM-001” value is listed as 2.181 fold.

Turning to KTINSARSPHSKAQNQQT, the “Fold enrichment over TTM-001” value stood at 2.292 fold.

For KTINGSGSPHSKAFTRQT, the “Fold enrichment over TTM-001” value is 2.518 fold.

For the sequence KTINGSGSPHSKSRHQQT, the “Fold enrichment over TTM-001” value is 2.685 fold.

With KTINGSGSPHSKATRRQT, the “Fold enrichment over TTM-001” value was found to be 3.277 fold.

On to KTINGSGSPHSKAQGVKT, for which the “Fold enrichment over TTM-001” value was found to be 2.002 fold.

On to KTINGSLSPHSWAQNQQT, for which the “Fold enrichment over TTM-001” value amounted to 2.885 fold.

Consider KTINGSGSPHMYLQNQQT, for which the “Fold enrichment over TTM-001” value stood at 3.061 fold.

For the sequence KTINGSGSPHSKVKPQQT, the “Fold enrichment over TTM-001” value amounted to 2.778 fold.

Consider KTINGSGSPHSKAQLGKT, for which the “Fold enrichment over TTM-001” value is 2.000 fold.

Turning to KTINGSGSPHSWGSNQQT, the “Fold enrichment over TTM-001” value was determined as 2.473 fold.

Turning to KTTHCSGSPHSKAQNQQT, the “Fold enrichment over TTM-001” value was 2.672 fold.

Take KTINGSGSPHSKAQNARH: the “Fold enrichment over TTM-001” value was 2.127 fold.

For the sequence KTINGSGSPHSGLWNQQT, the “Fold enrichment over TTM-001” value is listed as 2.350 fold.

KTINGSGSPHSFVVNQQT: the “Fold enrichment over TTM-001” value is reported as 2.335 fold.

“KTINGSRSPHCSAQNQQT (peptide inserted in AAV capsid)”: the “Fold enrichment over TTM-001” value is on record as 2.426 fold.

As for KTINGSGSPHSKRILQQT, the “Fold enrichment over TTM-001” value worked out at 2.801 fold.

On to KTINGSGSPHEHNQNQQT, for which the “Fold enrichment over TTM-001” value stood at 2.199 fold.

Consider KTINGSGSPHSKRSIQQT, for which the “Fold enrichment over TTM-001” value is 2.063 fold.

On to KTINGSGSPHSKARMTQT, for which the “Fold enrichment over TTM-001” value turned out to be 2.091 fold.

With KTINGSLSPHTWAQNQQT, the “Fold enrichment over TTM-001” value turned out to be 2.115 fold.

Consider KTINGSGSPHCTLQNQQT, for which the “Fold enrichment over TTM-001” value is given as 2.497 fold.

For the sequence “KYLSGSGSPHSKAQNQQT (peptide inserted in AAV capsid)”, the “Fold enrichment over TTM-001” value is recorded as 4.264 fold.

Turning to KTINGSGSPHSKRSLQQT, the “Fold enrichment over TTM-001” value is listed as 2.270 fold.

As for KTINGSGSPHSKRVSQQT, the “Fold enrichment over TTM-001” value came out at 2.196 fold.

With KTINGSGSPHSKARIMQT, the “Fold enrichment over TTM-001” value came out at 2.283 fold.

On to KTINGSGSPHSKTCLQQT, for which the “Fold enrichment over TTM-001” value amounted to 3.717 fold.

Regarding KTINGSGSPHSLLCNQQT, the “Fold enrichment over TTM-001” value worked out at 3.644 fold.

Consider KTINGSGSPHSLRFNQQT, for which the “Fold enrichment over TTM-001” value came out at 4.765 fold.

Turning to KTINGSASPHWSAQNQQT, the “Fold enrichment over TTM-001” value was determined as 2.121 fold.

Turning to KTINGSGSPHSKAHRSQT, the “Fold enrichment over TTM-001” value came out at 2.819 fold.

As to KTINGSGSPHSKAQLGRT, the “Fold enrichment over TTM-001” value is listed as 2.069 fold.

For the sequence KSMNGSGSPHSRAQNQQT, the “Fold enrichment over TTM-001” value is 5.145 fold.

Consider KTINGSGSPHSKSVRQQT, for which the “Fold enrichment over TTM-001” value came to 2.259 fold.

Take KTINGSGSPHSKAQTGRT: the “Fold enrichment over TTM-001” value is reported as 2.371 fold.

With KTINGSGSPHSKAQFSVT, the “Fold enrichment over TTM-001” value is 2.015 fold.

On to KTINGSGSPHSKAQLILT, for which the “Fold enrichment over TTM-001” value came out at 2.358 fold.

Turning to KTINGSGSPHSKLRNQQT, the “Fold enrichment over TTM-001” value came to 3.112 fold.

For KTINGSGSPHSVYRNQQT, the “Fold enrichment over TTM-001” value was found to be 2.432 fold.

In the case of KTINGVLSPHWKAQNQQT, the “Fold enrichment over TTM-001” value was 2.199 fold.

For KTINGLRSPHSKAQNQQT, the “Fold enrichment over TTM-001” value was found to be 2.238 fold.

As for KTINGSGSPHSKSARQQT, the “Fold enrichment over TTM-001” value is listed as 2.067 fold.

KTINGSGSPHSKARLWQT: the “Fold enrichment over TTM-001” value stood at 2.914 fold.

On to KTINGRQSPHVKAQNQQT, for which the “Fold enrichment over TTM-001” value is 2.557 fold.

On to KTINGSCSPHSLAQNQQT, for which the “Fold enrichment over TTM-001” value is 2.099 fold.

In the case of KTINGSGSPHSKAQSHRT, the “Fold enrichment over TTM-001” value worked out at 2.084 fold.

For the sequence KTINGSGSPHSKRTLQQT, the “Fold enrichment over TTM-001” value amounted to 2.583 fold.

Consider KTINGSGSPHSKAQFTLT, for which the “Fold enrichment over TTM-001” value amounted to 2.277 fold.

Take KTINGSGSPHSKRTAQQT: the “Fold enrichment over TTM-001” value is 2.331 fold.

On to “KTINGSTSPHYLAQNQQT (peptide inserted in AAV capsid)”, for which the “Fold enrichment over TTM-001” value came to 2.665 fold.

In the case of KTINGRHSPHLKAQNQQT, the “Fold enrichment over TTM-001” value came to 2.369 fold.

With KTINGSGSPHSKPVRQQT, the “Fold enrichment over TTM-001” value amounted to 2.529 fold.

With KTINGSGSPHSKRTPQQT, the “Fold enrichment over TTM-001” value is reported as 3.169 fold.

With KTIRSKGSPHSKAQNQQT, the “Fold enrichment over TTM-001” value is 2.559 fold.

As to KTINGSISPHFVAQNQQT, the “Fold enrichment over TTM-001” value was found to be 2.006 fold.

As to KTINGSGSPHLLYQNQQT, the “Fold enrichment over TTM-001” value was 2.983 fold.

Turning to KTINGSGSPHSKQRSQQT, the “Fold enrichment over TTM-001” value stood at 2.395 fold.

For “KTINGSSSPHCLAQNQQT (peptide inserted in AAV capsid)”, the “Fold enrichment over TTM-001” value came to 2.074 fold.

With KTINGSGSPHRSRQNQQT, the “Fold enrichment over TTM-001” value was found to be 2.270 fold.

For the sequence KTINGSGSPHSKFKLQQT, the “Fold enrichment over TTM-001” value is listed as 2.244 fold.

As to KTINGSGSPHSKAQRGMT, the “Fold enrichment over TTM-001” value stood at 2.231 fold.

Take KTINGSGSPHSKAQLHRT: the “Fold enrichment over TTM-001” value was 2.618 fold.

Regarding KTINGSGSPHSKTGRQQT, the “Fold enrichment over TTM-001” value is 2.259 fold.

Consider KTINGSGSPHSKAQRHAT, for which the “Fold enrichment over TTM-001” value turned out to be 2.264 fold.

For KTINGSGSPHSKQTRQQT, the “Fold enrichment over TTM-001” value was determined as 2.650 fold.

For KTINGSGSPHSIFSNQQT, the “Fold enrichment over TTM-001” value is given as 2.110 fold.

With KTINGSGSPHSYVRNQQT, the “Fold enrichment over TTM-001” value was found to be 2.339 fold.

On to KTINGSGSPHSTRPNQQT, for which the “Fold enrichment over TTM-001” value is 2.598 fold.

As to KTINGSGSPHSKNLRQQT, the “Fold enrichment over TTM-001” value is on record as 2.022 fold.

KTINGSGSPHSKAQNAKS: the “Fold enrichment over TTM-001” value came to 2.009 fold.

On to KTINGSGSPHLVFQNQQT, for which the “Fold enrichment over TTM-001” value was found to be 2.376 fold.

For the sequence KTINGSGSPHSKPRGQQT, the “Fold enrichment over TTM-001” value stood at 2.147 fold.

For KTINGSGSPHSKWTLQQT, the “Fold enrichment over TTM-001” value was 2.039 fold.

For KTINGSGSPHSLSWNQQT, the “Fold enrichment over TTM-001” value was determined as 2.588 fold.

With KTINGSGSPHSWLQNQQT, the “Fold enrichment over TTM-001” value stood at 2.665 fold.

In the case of KTINGSGSPHSKAQMKCT, the “Fold enrichment over TTM-001” value is listed as 2.039 fold.

As for KTINGFLSPHRKAQNQQT, the “Fold enrichment over TTM-001” value stood at 2.654 fold.

On to KTINGRRSPHLKAQNQQT, for which the “Fold enrichment over TTM-001” value came to 2.391 fold.

As to KTINGSGSPHSKLMRQQT, the “Fold enrichment over TTM-001” value turned out to be 2.056 fold.

On to “KTINGSTSPHWSAQNQQT (peptide inserted in AAV capsid)”, for which the “Fold enrichment over TTM-001” value turned out to be 2.043 fold.

For the sequence KTINGSGSPHTRRQNQQT, the “Fold enrichment over TTM-001” value was 3.350 fold.
